Source: ChEMBL document CHEMBL1143841, “Improved assessment of plasmodium vivax response to antimalarial drugs by a colorimetric double-site plasmodium lactate dehydrogenase antigen capture enzyme-linked immunosorbent assay” (Antimicrob Agents Chemother, 2007)

Key:
Type in all cases: functional, organism-based
Plasmodium vivax [1] = assay: Growth inhibition of Plasmodium vivax isolate 1 assessed as parasite LDH synthesis after 48 hrs by double-site Plasmodium LDH antigen capture enzyme-linked immunosorbent assay
Plasmodium vivax [2] = assay: Growth inhibition of Plasmodium vivax isolate 2 assessed as parasite LDH synthesis after 48 hrs by double-site Plasmodium LDH antigen capture enzyme-linked immunosorbent assay
Plasmodium vivax [3] = assay: Growth inhibition of Plasmodium vivax isolate 3 assessed as parasite LDH synthesis after 48 hrs by double-site Plasmodium LDH antigen capture enzyme-linked immunosorbent assay
Plasmodium vivax [4] = assay: Growth inhibition of Plasmodium vivax isolate 4 assessed as parasite LDH synthesis after 48 hrs by double-site Plasmodium LDH antigen capture enzyme-linked immunosorbent assay

Question: Which IC50 (Plasmodium vivax [1]) does the source give for `CCN(CC)CCCC(C)Nc1ccnc2cc(Cl)ccc12` (centres undefined) [CHLOROQUINE] here?
Answer: Its IC50 is 5.5 nM.

Question: And the IC50 (Plasmodium vivax [2])?
Answer: Its IC50 is 11.9 nM.

Question: And the IC50 (Plasmodium vivax [3])?
Answer: The IC50 was 89.9 nM.

Question: What about the IC50 (Plasmodium vivax [4]) of the same compound?
Answer: The IC50 was 180 nM.
